Test system: increase of diastolic pressure caused by the intravenous administration of Arg-vasopressin
Test: Anti-vasopressor activity in vivo
Parameters: species or system male SD rat
Settings: 0.05 h; pith rat; test compound intravenous; Arg-vasopressin (30 mU/kg) intravenously 3 minutes after the test compound; dose reducing the increase of diastolic pressure to 50 % of control

## COc1ccc(C(=O)N2CCC(N3C(=O)CCc4ccc(F)cc43)CC2)c(OC)c1 [Example 311, 7-Fluoro-1-[1-(2,4-dimethoxybenzoyl)-4-piperidinyl]-3,4-dihydrocarbostyril]
  ED50: 0.3 mg/kg

— patent EP0382185A2, “Carbostyril derivatives” (OTSUKA PHARMACEUTICAL CO., LTD., priority 1989, dated 1990)
